# Read-outs that look alike come from different tables or passages of the source.
# Tests used:
# [1] = tested on: KB-3-1; assay: Cytotoxicity, sensitive line KB-3-1; assay type: cell-based; conditions: Homo sapiens, KB 3-1, 96 h, read-out: Cytotoxicity IC50, sensitive KB-3-1
# Text: (§1) The cells are distributed on microplates and exposed to the cytotoxic compounds.
# [2] = tested on: KB-A1; assay: cells; conditions: Homo sapiens, KB-A1, 96 h, read-out: Cytotoxicity IC50, resistant KB-A1
# [3] = tested on: S1; assay: Cytotoxicity, sensitive line S1; assay type: cell-based; conditions: Homo sapiens, 96 h; 4 days incubation; read-out: Cytotoxicity IC50, sensitive S1
# Text: as §1
# [4] = tested on: S1/tMDR; assay: cells; conditions: Homo sapiens, 96 h, read-out: Cytotoxicity IC50, resistant S1/tMDR
# [5] = tested on: P388/VCR-20; conditions: for resistance factor: P388/VCR-20 vs P388
# [6] = tested on: S1/tMDR; conditions: for resistance factor: S1/tMDR vs S1
# [7] = tested on: L1210; assay: Cytotoxicity, line L1210 (Microculture Tetrazolium Assay); assay type: cell-based, murine; conditions: for times more cytotoxic than adriamycin / times more cytotoxic than elliptinium acetate: L1210; for IC50: Mus musculus, L1210, 48 h, read-out: Cytotoxicity IC50, line L1210
# Text: as §1
# [8] = tested on: colon 38; assay: Anti-tumour activity against colon 38; assay type: in vivo, female B6D2F1 mice; conditions: for median T/C (tumour volume): d2 and d9, d25
# Experimental: Colon 38 (supplied by NCI, Frederick, USA) was inserted in the form of fragments by the subcutaneous route into female B6D2F1 mice. The compounds were administered by the i.v. route on d2 and d9 and the anti-tumour activity was determined on […] by measuring the tumour volume (T/C volume, %).
# [9] = tested on: P388/VCR-20; assay: cells; conditions: Mus musculus, P388, 48 h, read-out: Cytotoxicity IC50, resistant P388/VCR-20
# [10] = tested on: leukaemia P388; assay: Anti-tumour activity against leukaemia P388 in vivo; conditions: for Survivors on d60/total no. of mice / T/C: intraperitoneal, day 1
# [11] = tested on: P388; assay: Cytotoxicity, sensitive line P388 (Microculture Tetrazolium Assay); assay type: cell-based, murine; conditions: Mus musculus, P388, 48 h; 2 days incubation; read-out: Cytotoxicity IC50, sensitive P388
# Text: as §1
# [12] = tested on: KB-A1
# [13] = Anti-tumour activity against M5076 sarcoma; assay type: in vivo, female B6D2F1 mice; conditions: mouse, in vivo, ip; read-out: maximum tolerated dose
# Experimental: (§2) M5076 sarcoma is supplied by NCI (Frederick, USA). The tumour cells (10^7 cells/animal) were inoculated on d0 into the peritoneal cavity of female B6D2F1 mice. The compounds were administered by the i.p. route on d1, d5, d9 and d13 at the doses indicated. The surviving animals on d90 were recorded and the T/C survival (%) was calculated.
# [14] = tested on: M5076 sarcoma; assay: Anti-tumour activity against M5076 sarcoma; assay type: in vivo, female B6D2F1 mice; conditions: for Survivors on d90 / median T/C (survival): i.p., d1, d5, d9, d13
# Experimental: as §2
# [15] = maximum tolerated dose (2 mg/kg)
Compound,IC50 ([1]; 4 days incubation),IC50 [2],IC50 [3],IC50 [4],resistance factor [5],resistance factor [6],times more cytotoxic than adriamycin [7],times more cytotoxic than elliptinium acetate [7],IC50 ([7]; 2 days incubation),"median T/C (tumour volume) ([8]; 20 mg/kg, i.v.)",IC50 [9],Survivors on d60/total no. of mice ([10]; 5 mg/kg),T/C ([10]; 5 mg/kg),Survivors on d60/total no. of mice ([10]; 10 mg/kg),T/C ([10]; 10 mg/kg),Survivors on d60/total no. of mice ([10]; 20 mg/kg),T/C ([10]; 20 mg/kg),Survivors on d60/total no. of mice ([10]; 30 mg/kg),T/C ([10]; 30 mg/kg),IC50 [11],also measured
"Cc1c2ccnc(C(=O)NCCCN(C)C)c2cc2c3cc(O)ccc3n(C)c12 [Example 2, 1-(N,N-Dimethylaminopropylaminocarbonyl)-5,6-dimethyl-9-hydroxy-6H-pyrido[4,3-b]carbazole]",19 nM,1220 nM,57 nM,38 nM,"3,4","0,7",approximately 9 times,~46 times,4.3 nM,0%,38 nM,0/10,177%,0/10,190%,3/10,250%,1/10,204%,11 nM,"T/C ([8]; 20 mg/kg and above, i.v.): 0%; activity against that solid tumour (in words) ([8]; 20 mg/kg and above, i.v.): very active; median T/C (tumour volume) ([8]; 40 mg/kg, i.v.): 0%; median T/C (tumour volume) ([8]; 60 mg/kg, i.v.): 0%; activity relative to 5-fluorouracyle ([8]; 5-Fu at 80 mg/kg): as active as; Survivors on d60/total no. of mice ([10]; 40 mg/kg): 2/10; T/C ([10]; 40 mg/kg): 219%; Survivors on d60/total no. of mice ([10]; 50 mg/kg): 3/10; T/C ([10]; 50 mg/kg): 222%; Survivors on d60/total no. of mice ([10]; 60 mg/kg): 3/10; T/C ([10]; 60 mg/kg): 248%; resistance factor ([12]; KB-A1 vs KB-3-1): 64"
"Cc1c2ccnc(C(=O)NCCN(C)C)c2cc2c1[nH]c1ccc(O)cc12 [Example 6, 1-(N,N-Dimethylaminoethylaminocarbonyl)-5-methyl-9-hydroxy-6H-pyrido[4,3-b]carbazole]",20 nM,737 nM,42 nM,29 nM,"0,5","0,7",approximately 9 times,~46 times,3.1 nM,22%,10 nM,4/10,280%,3/10,233%,5/10,> 600%,7/10,> 600%,19 nM,"sensitivity of resistant line P388/VCR-20 relative to corresponding sensitive line ([5]; vs P388): more sensitive; sensitivity of resistant line S1/tMDR relative to corresponding sensitive line ([6]; vs S1): more sensitive; median T/C (tumour volume) ([8]; 10 mg/kg, i.v.): 35%; median T/C (tumour volume) ([8]; 30 mg/kg, i.v.): 0%; long-term survivors over all doses employed ([10]; all doses employed): all the doses employed giving long-term survivors; resistance factor ([12]; KB-A1 vs KB-3-1): 37"
"Cc1c2cc[n+](C)cc2c(C)c2c1[nH]c1ccc(O)cc12 [elliptinium acetate, reference compound]",–,4320 nM,–,–,–,–,–,–,–,–,–,0/10,171%,–,–,–,–,–,–,–,"MTD [13]: 2 mg/kg; Survivors on d90 ([14]; 1 mg/kg): 1/10; median T/C (survival) ([14]; 1 mg/kg): 153%; Survivors on d90 ([14]; 2 mg/kg): 0/10; median T/C (survival) ([14]; 2 mg/kg): 180%; activity against that tumour (in words) [14, 15]: not very active; survivors [14, 15]: no animal has survived; IC50 [1]: 226 nM; IC50 [7]: 139 nM; gravimetric variation ([10]; at the optimum dose used, equitoxic doses): -4 g; toxic at dose and above ([10]; mouse, in vivo): ≥ 5 mg/kg; cures, treated mice (comparators) ([10]; reference compounds, dose not given): none; resistance factor [12]: 19"

# Reference: US5407940A, “New ellipticine compounds” (priority 1992, dated 1995)
